Results: patent US10544120B2, “Biaryl kinase inhibitors” (BRISTOL-MYERS SQUIBB COMPANY, priority 2015, dated 2020)

These molecules were tested against GST-Xa-hAAK1 (Homo sapiens (Human), UniProt Q2M2I8) (assay: AAK1 Kinase Assay). Conditions: bacterially expressed GST-Xa-hAAK1 3.5 nM; ATP 22 μM; fluoresceinated peptide 1.5 μM; 3 hours at room temperature; Caliper LabChip 3000.
Format: biochemical
Protocol: The assays were performed in U-bottom 384-well plates. […] The reactions were initiated by the combination of bacterially expressed, GST-Xa-hAAK1 with substrates and test compounds. The reactions were incubated at room temperature for 3 hours and terminated by adding 60 μl of 35 mM EDTA buffer to each sample. The reactions were analyzed on the Caliper LabChip 3000 (Caliper, Hopkinton, Mass.) by electrophoretic separation of the fluorescent substrate and phosphorylated product. […] Compounds were dissolved at 10 mM in dimethylsulfoxide (DMSO) and evaluated at eleven concentrations. IC50 values were derived by non-linear regression analysis.

Chain of GST-Xa-hAAK1 (Q2M2I8 whole entry): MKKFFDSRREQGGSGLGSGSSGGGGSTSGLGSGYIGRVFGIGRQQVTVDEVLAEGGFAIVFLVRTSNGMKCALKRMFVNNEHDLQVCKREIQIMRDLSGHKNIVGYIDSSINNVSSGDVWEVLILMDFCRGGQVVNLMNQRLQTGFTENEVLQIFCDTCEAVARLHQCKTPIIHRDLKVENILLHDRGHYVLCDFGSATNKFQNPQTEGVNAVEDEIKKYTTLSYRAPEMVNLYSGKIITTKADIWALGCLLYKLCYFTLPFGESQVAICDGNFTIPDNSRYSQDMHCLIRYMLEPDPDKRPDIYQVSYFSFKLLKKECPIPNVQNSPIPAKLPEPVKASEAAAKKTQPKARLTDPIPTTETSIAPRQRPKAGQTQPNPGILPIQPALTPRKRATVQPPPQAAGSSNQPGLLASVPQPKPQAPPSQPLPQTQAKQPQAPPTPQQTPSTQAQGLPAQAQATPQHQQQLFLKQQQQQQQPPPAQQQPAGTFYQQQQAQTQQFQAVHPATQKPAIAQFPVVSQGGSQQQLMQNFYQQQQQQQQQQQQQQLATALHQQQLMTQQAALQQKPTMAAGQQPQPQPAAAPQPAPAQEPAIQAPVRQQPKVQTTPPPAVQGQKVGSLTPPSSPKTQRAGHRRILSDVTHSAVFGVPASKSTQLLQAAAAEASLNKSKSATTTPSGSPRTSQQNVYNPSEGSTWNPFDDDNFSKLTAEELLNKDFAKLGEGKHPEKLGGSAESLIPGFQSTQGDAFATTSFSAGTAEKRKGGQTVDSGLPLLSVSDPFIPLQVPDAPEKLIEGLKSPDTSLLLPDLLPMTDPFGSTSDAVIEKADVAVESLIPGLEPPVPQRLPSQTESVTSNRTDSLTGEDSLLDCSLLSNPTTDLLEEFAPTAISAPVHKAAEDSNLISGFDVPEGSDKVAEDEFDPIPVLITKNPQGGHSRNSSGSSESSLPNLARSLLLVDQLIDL

Compound	IC50 [nM]
CC(C)C[C@](C)(N)COc1ccc(-c2ccnc(C(F)(F)F)n2)cc1F [Example 331, (S)-1-(2-fluoro-4-(2-(trifluoromethyl)pyrimidin-4-yl)phenoxy)-2,4-dimethylpentan-2-amine]	45
COC(=O)Nc1nccc(-c2ccc(OC[C@@](C)(N)CC(C)C)c(F)c2)n1 [Example 310, (S)-methyl (4-(4-((2-amino-2,4-dimethylpentyl)oxy)-3-fluorophenyl)pyrimidin-2-yl)carbamate]	9.1
COC(=O)Nc1cc(-c2ccc(OC[C@@](C)(N)CC(C)C)c(Cl)c2)cnn1 [Example 301, (S)-methyl (5-(4-((2-amino-2,4-dimethylpentyl)oxy)-3-chlorophenyl)pyridazin-3-yl)carbamate]	58
CC(C)C[C@](C)(N)COc1ccc(-c2ccnc(C(F)(F)F)n2)cc1Cl [Example 465, (S)-1-(2-chloro-4-(2-(trifluoromethyl)pyrimidin-4-yl)phenoxy)-2,4-dimethylpentan-2-amine]	3.6
CC(C)C[C@](C)(N)COc1ccc(-c2cc(Cl)ncn2)cc1C(F)(F)F [Example 442, (S)-1-(4-(6-chloropyrimidin-4-yl)-2-(trifluoromethyl)phenoxy)-2,4-dimethylpentan-2-amine]	19
Cc1nc(-c2cc(N)ncn2)ccc1OC[C@@](C)(N)CC(C)C [Example 343, (S)-6-(5-((2-amino-2,4-dimethylpentyl)oxy)-6-methylpyridin-2-yl)pyrimidin-4-amine]	19
COC(=O)Nc1cc(-c2cnc(OC[C@@](C)(N)CC(C)C)c(C)c2)ncn1 [Example 438, (S)-methyl (6-(6-((2-amino-2,4-dimethylpentyl)oxy)-5-methylpyridin-3-yl)pyrimidin-4-yl)carbamate]	6.5
CCc1cc(-c2ccc(OC[C@@](C)(N)CC(C)C)c(C(F)(F)F)c2)ncn1 [Example 444, (S)-1-(4-(6-ethylpyrimidin-4-yl)-2-(trifluoromethyl)phenoxy)-2,4-dimethylpentan-2-amine]	153
COC(=O)Nc1nccc(-c2ccc(OC[C@@](C)(N)CC(C)C)c(CF)n2)n1 [Example 388, (S)-methyl (4-(5-((2-amino-2,4-dimethylpentyl)oxy)-6-(fluoromethyl)pyridin-2-yl)pyrimidin-2-yl)carbamate]	4.7
Cc1nccc(-c2ccc(OC[C@@](C)(N)CC(C)C)c(F)c2F)n1 [Example 511, (S)-1-(2,3-difluoro-4-(2-methylpyrimidin-4-yl)phenoxy)-2,4-dimethylpentan-2-amine]	5.1
Cc1cc(-c2cc(N)ncn2)ccc1OC[C@@](C)(N)CC(C)C [Example 431, (S)-6-(4-((2-amino-2,4-dimethylpentyl)oxy)-3-methylphenyl)pyrimidin-4-amine]	5.4
CCc1cc(-c2ccc(OC[C@@](C)(N)CC(C)C)c(C#N)c2)ncn1 [Example 443, (S)-2-((2-amino-2,4-dimethylpentyl)oxy)-5-(6-ethylpyrimidin-4-yl)benzonitrile]	46
Cc1cc(-c2ccc(OC[C@@](C)(N)CC(C)C)c(C(F)(F)F)c2)nc(C)n1 [Example 479, (S)-1-(4-(2,6-dimethylpyrimidin-4-yl)-2-(trifluoromethyl)phenoxy)-2,4-dimethylpentan-2-amine]	533
COC(=O)Nc1nccc(-c2cnc(OC[C@](C)(N)CC(C)C)c(F)c2)n1 [Example 373, (R)-methyl (4-(6-((2-amino-2,4-dimethylpentyl)oxy)-5-fluoropyridin-3-yl)pyrimidin-2-yl)carbamate]	684
COc1cc(-c2ccc(OC[C@@](C)(N)CC(C)C)c(C(F)F)c2)ccn1 [Example 383, (S)-1-(2-(difluoromethyl)-4-(2-methoxypyridin-4-yl)phenoxy)-2,4-dimethylpentan-2-amine]	2
Cc1nccc(-c2ccc(OC[C@@](C)(N)CC(C)C)c(F)c2)n1 [Example 462, (S)-1-(2-fluoro-4-(2-methylpyrimidin-4-yl)phenoxy)-2,4-dimethylpentan-2-amine]	21
COc1nccc(-c2ccc(OC[C@@](C)(N)CC(C)C)c(C(F)(F)F)c2)n1 [Example 316, (S)-1-(4-(2-methoxypyrimidin-4-yl)-2-(trifluoromethyl)phenoxy)-2,4-dimethylpentan-2-amine]	8.2
COC(=O)Nc1cc(-c2cnc(OC[C@@](C)(N)CC(C)C)c(Cl)c2)ncn1 [Example 437, (S)-methyl (6-(6-((2-amino-2,4-dimethylpentyl)oxy)-5-chloropyridin-3-yl)pyrimidin-4-yl)carbamate]	2.2
Cc1nccc(-c2ccc(OCC(N)(CC(C)C)C(F)(F)F)c(C)n2)n1 (single isomer, unassigned) [Example 359, 1,1,1-trifluoro-4-methyl-2-(((2-methyl-6-(2-methylpyrimidin-4-yl)pyridin-3-yl)oxy)methyl)pentan-2-amine]	865
Cc1cc(-c2ccnc(C(F)(F)F)c2)ncc1OC[C@@](C)(N)CC(C)C [Example 349, (S)-2,4-dimethyl-1-((4-methyl-2′-(trifluoromethyl)-[2,4′-bipyridin]-5-yl)oxy)pentan-2-amine]	70
Cc1nccc(-c2ccc(OCC(N)(CC(C)C)C(F)(F)F)c(C)n2)n1 (single isomer, unassigned) [Example 360, 1,1,1-trifluoro-4-methyl-2-(((2-methyl-6-(2-methylpyrimidin-4-yl)pyridin-3-yl)oxy)methyl)pentan-2-amine]	1250
Cc1cc(-c2cnc(OC[C@@](C)(N)CC(C)C)c(C)c2)ncn1 [Example 446, (S)-2,4-dimethyl-1-((3-methyl-5-(6-methylpyrimidin-4-yl)pyridin-2-yl)oxy)pentan-2-amine]	317
CC(C)C[C@](C)(N)COc1ccc(-c2ccnc(C(C)C)n2)cc1F [Example 337, (S)-1-(2-fluoro-4-(2-isopropylpyrimidin-4-yl)phenoxy)-2,4-dimethylpentan-2-amine]	886
Cc1cc(-c2ccnc(F)c2)ncc1OC[C@@](C)(N)CC(C)C [Example 344, (S)-1-((2′-fluoro-4-methyl-[2,4′-bipyridin]-5-yl)oxy)-2,4-dimethylpentan-2-amine]	26
Cc1nccc(-c2ccc(OC[C@@](C)(N)CC(C)C)c(C)c2)n1 [Example 329, (S)-2,4-dimethyl-1-(2-methyl-4-(2-methylpyrimidin-4-yl)phenoxy)pentan-2-amine]	2.4

Stronger by IC50, values ahead:

IC50 [nM]	Compound
0.7	CC(C)CCC(=O)Nc1cc(-c2ccc(OC[C@@](C)(N)CC(C)C)c(C(F)(F)F)c2)ccn1 [Example 397, (S)-N-(4-(4-((2-amino-2,4-dimethylpentyl)oxy)-3-(trifluoromethyl)phenyl)pyridin-2-yl)-4-methylpentanamide]
0.4	Cc1cc2c(-c3ccc(OC[C@@](C)(N)CC(C)C)c(C#N)c3)ccnc2[nH]1 [Example 328, (S)-2-((2-amino-2,4-dimethylpentyl)oxy)-5-(2-methyl-1H-pyrrolo[2,3-b]pyridin-4-yl)benzonitrile]
1.8	COC(=O)Nc1cc(-c2ccc(OC[C@@](C)(N)CC(C)C)c(C)c2)ncn1 [Example 433, (S)-methyl (6-(4-((2-amino-2,4-dimethylpentyl)oxy)-3-methylphenyl)pyrimidin-4-yl)carbamate]
1.5	Cc1nccc(-c2ccc(OC[C@@](C)(N)CC(C)C)c(C#N)c2)n1 [Example 458, (S)-2-(2-amino-2,4-dimethylpentyloxy)-5-(2-methylpyrimidin-4-yl) benzonitrile]
1.4	Cc1nccc(-c2ccc(OC[C@@](C)(N)CC(C)C)c(CF)c2)n1 [Example 352, (S)-1-(2-(fluoromethyl)-4-(2-methylpyrimidin-4-yl)phenoxy)-2,4-dimethylpentan-2-amine]
1	COC(=O)Nc1nccc(-c2ccc(OC[C@@](C)(N)CC(C)C)c(C#N)c2)n1 [Example 305, (S)-methyl (4-(4-((2-amino-2,4-dimethylpentyl)oxy)-3-cyanophenyl)pyrimidin-2-yl)carbamate]
0.7	COC(=O)Nc1cc(-c2ccc(OC[C@@](C)(N)CC(C)C)c(C(F)(F)F)c2)ncn1 [Example 432, (S)-methyl (6-(4-((2-amino-2,4-dimethylpentyl)oxy)-3-(trifluoromethyl)phenyl)pyrimidin-4-yl)carbamate]
1.8	CC(C)C[C@](C)(N)COc1ccc(-c2ccnc(C(F)F)c2)nc1CF [Example 325, (S)-1-((2′-(difluoromethyl)-6-(fluoromethyl)-[2,4′-bipyridin]-5-yl)oxy)-2,4-dimethylpentan-2-amine]
0.3	CC(C)C[C@](C)(N)COc1ccc(-c2ccnc(N)c2)cc1C(F)(F)F [Example 297, (S)-4-(4-((2-amino-2,4-dimethylpentyl)oxy)-3-(trifluoromethyl)phenyl)pyridin-2-amine]
1.1	COC(=O)Nc1cc(-c2ccc(OC[C@@](C)(N)CC(C)C)c(CF)n2)ccn1 [Example 280, (S)-methyl (5-((2-amino-2,4-dimethylpentyl)oxy)-6-(fluoromethyl)-[2,4′-bipyridin]-2′-yl)carbamate]
0.7	CC(C)CC(=O)Nc1cc(-c2ccc(OC[C@@](C)(N)CC(C)C)c(C(F)(F)F)c2)ccn1 [Example 395, (S)-N-(4-(4-((2-amino-2,4-dimethylpentyl)oxy)-3-(trifluoromethyl)phenyl)pyridin-2-yl)-3-methylbutanamide]
1.4	CC(C)C[C@](C)(N)COc1ccc(-c2ccnc(Cl)n2)cc1C#N [Example 378, (S)-2-((2-amino-2,4-dimethylpentyl)oxy)-5-(2-chloropyrimidin-4-yl)benzonitrile]
